# Test results: paper PMC5161641 (Nature, 2016)
# Substitutions are numbered along the chain they refer to.
# How the values were obtained:
# [1] = biological target: T1, human P2X3 receptor (hP2X3-MFC) (Homo sapiens, UniProt P56373); test: X-ray structure of soaked crystal; type: binding
# T1 sequence (P56373 6-364): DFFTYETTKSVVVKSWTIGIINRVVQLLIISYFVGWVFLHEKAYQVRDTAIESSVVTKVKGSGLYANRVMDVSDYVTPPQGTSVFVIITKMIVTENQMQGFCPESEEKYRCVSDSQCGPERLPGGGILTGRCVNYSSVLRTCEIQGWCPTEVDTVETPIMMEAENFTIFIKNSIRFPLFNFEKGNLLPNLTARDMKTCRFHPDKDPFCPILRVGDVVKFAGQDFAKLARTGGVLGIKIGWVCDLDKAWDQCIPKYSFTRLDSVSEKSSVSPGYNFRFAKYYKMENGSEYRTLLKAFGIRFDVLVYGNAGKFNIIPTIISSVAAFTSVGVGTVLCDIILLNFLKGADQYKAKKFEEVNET
# [2] = biological target: T1, human P2X3 receptor (hP2X3-MFC); test: SPA 3H-ATP saturation binding
# [3] = biological target: T2, human P2X3 receptor (hP2X3-MFCslow) (Homo sapiens, UniProt P56373, T13P/S15V/V16I); test: SPA 3H-ATP saturation binding
# T2 sequence (P56373 6-364 T13P/S15V/V16I): T1 sequence (P56373 6-364) with T8P, S10V, V11I
smiles,measurement,setting,value
"CSc1nc(N)c2ncn([C@@H]3O[C@H](COP(=O)(O)OP(=O)(O)OP(=O)(O)O)[C@@H](O)[C@H]3O)c2n1 [2-methylthio-ATP, 2-(methylthio)adenosine 5′-triphosphate]",Ki,[1],1.9 ± 0.1 nM
Nc1ncnc2c1ncn2[C@@H]1O[C@H](COP(=O)(O)OP(=O)(O)OP(=O)(O)O)[C@@H](O)[C@H]1O [ATP],Kd,[2],2.8 ± 0.1 nM
same,Kd,[3],3.3 ± 0.3 nM
